Results reported in patent US5246949A, “Preparation for endermism containing dopamine derivatives” (Sansho Co., Ltd., priority 1989, dated 1993).
Counter-ions that a name gives are not always drawn. Like-named read-outs stand apart in the source and are kept apart here. Each block holds one compound with its values, some of them ahead of it.

Columns and labels:
[1] = in vitro skin permeability test (horizontal membrane type in vitro diffusion cell, HPLC determination); conditions: for skin permeability on adding a lactic acid ester: Test Example 1, FIG. 1; for skin permeability on adding a higher alcohol: Test Examples 5 to 8, FIGS. 5 to 8, 10% by weight
Experimental: 100 mg of each dopamine derivative hydrochloride as shown in Table 1 was weighed and 900 mg of propylene glycol was added thereto to obtain a solution or suspension containing 10% by weight of each dopamine derivative hydrochloride. These solutions and suspensions were referred to as comparative samples a to e, respectively.
Then 50 mg (in the cases of invention samples A to D) or 100 mg (in the cases of invention samples E to H) of each lactic acid ester or fatty acid monoglyceride as shown in Table 1 was added thereto. Further, propylene glycol was added to make the total amount 1000 mg. Thus, a solution or suspension containing 10% by weight of each dopamine derivative hydrochloride was obtained. These solutions and suspensions were referred to as invention samples A to H.
100 mg of each dopamine derivative hydrochloride as shown in Table 2 was weighed and 900 mg of polyethylene glycol 400 was added thereto. Thus a solution or suspension containing 10% by weight of each dopamine derivative hydrochloride was obtained. These solutions and suspensions were referred to as comparative samples f to i respectively.
Further polyethylene […] was added thereto to make the total amount 1000 mg. Thus, a solution or suspension containing 10% by weight of each dopamine derivative hydrochloride was prepared. These solutions and suspensions were referred to as invention samples I to N, respectively.
The abdominal hair of a male Wister rat, weighing 170 to 200 g and 7 weeks of age, was removed under anesthesia. […] Next, the whole abdominal skin was cleansed with 70% ethanol and then peeled off under anesthesia.
The peeled skin was fixed on the lid of a horizontal membrane type in vitro diffusion cell (penetration area: 7.54 cm^2) in such a manner that the epidermis served as the donor face. As a receiver solution, 50 ml of physiological saline solution or a 30% aqueous solutioh of polyethylene glycol 400 was employed. On the donor side, 0.5 g of a solution of each sample was applied by adding dropwise. Then the lid was fixed in a receptor while paying attention so no bubbles remained in the derm side, followed by storing it in an incubator maintained at 32° C. The receptor solution was stirred with a stirrer and 0.5 ml portions thereof were collected with the lapse of time so as to determine the dopamine derivative contained therein. The determination was effected by high performance liquid chromatography. (iii) Test Results

[2] = oral or percutaneous; cited from earlier work
[3] = cited from earlier work
[4] = 5% aqueous solution of glyceryl monocaprylate; Okumura et al. 1989; cited from earlier work
[5] = SOL I. Rajifer et al. 1986; cited from earlier work
[6] = oral drug; E. Lodola et al. 1986; cited from earlier work
[7] = 10% by weight in propylene glycol, 32° C.
[8] = Test Examples 2 to 4, FIGS. 2 to 4, 10% by weight in propylene glycol, 32° C.

Structure (SMILES): CC(C)C(=O)Oc1ccc(CCN)cc1OC(=O)C(C)C.Cl [3,4-di-O-isobutyryldopamine hydrochloride]
skin permeability on adding a lactic acid ester [1, 7]: extremely elevated
skin permeability on adding a higher alcohol ([1]; 32° C.): extremely elevated

skin permeability on adding a lactic acid ester or a fatty acid monoglyceride [1, 8]: extremely elevated
skin permeability on adding a higher alcohol ([1]; 32° C.): extremely elevated
Structure (SMILES): CNCCc1ccc(OC(=O)C(C)C)c(OC(=O)C(C)C)c1 [3,4-di-O-isobutyrylepinine hydrochloride]

Structure (SMILES): CCCC(=O)Oc1ccc(CCN)cc1OC(=O)CCC [3,4-di-O-n-butyryldopamine hydrochloride]
decomposition after penetrating into the skin [1]: considerably decomposed
skin permeability on adding a lactic acid ester or a fatty acid monoglyceride [1]: extremely elevated

Structure (SMILES): Cl.NCCc1ccc(OC(=O)c2cccnc2)c(OC(=O)c2cccnc2)c1 [3,4-di-O-nicotinoyldopamine hydrochloride]
skin permeability on adding a lactic acid ester or a fatty acid monoglyceride [1, 8]: extremely elevated
skin permeability on adding a higher alcohol ([1]; 32° C.): extremely elevated

Structure (SMILES): CC(C)(C)C(=O)Oc1ccc(CCN)cc1OC(=O)C(C)(C)C.Cl [3,4-di-O-pivaloyldopamine hydrochloride]
skin permeability on adding a lactic acid ester [1, 7]: extremely elevated
skin permeability on adding a higher alcohol ([1]; 32° C.): extremely elevated

Structure (SMILES): NCCc1ccc(O)c(O)c1 [Dopamine]
absorption when administered orally or percutaneously [2]: scarcely absorbed

Structure (SMILES): CC(CCc1ccc(O)cc1)NCCc1ccc(O)c(O)c1 (centres unmarked) [dobutamine]
absorption when administered orally or percutaneously [2]: scarcely absorbed

Structure (SMILES): Cl.NCCc1ccc(O)c(O)c1 [dopamine hydrochloride]
skin damage ([3]; if percutaneously absorbed): causes skin damage
irritation to the skin ([3]; percutaneous): highly irritative to the skin
percutaneous penetration rate relative to dopamine hydrochloride alone [4]: 34 times

Structure (SMILES): CNCCc1ccc(OC(=O)C(C)C)c(OC(=O)C(C)C)c1 [ibopamine]
duration of the effect on improvement of the circulation (cardiac coefficient) [5]: 3 to 6 h
half-life in plasma [6]: 1.54 h
